Test results: US12221494B2, “Short synthetic peptides and their uses for treating retinal degenerative diseases and/or tissue injuries” (MacKay Memorial Hospital, priority 2019, dated 2025)

Key:
Neuro-2a cells = assay: Glutamate-induced Neuro-2a cell death (LDH release); format: cell-based, mouse
Description: Neuro-2a cells were seeded in 48-well culture plates (1.5×10^5 cells/well) for 24 h, and then cultured in 0.5 ml fresh 2% FBS-DMEM medium containing 20 μM of the present peptide (7 μg of 6-mer in 0.5 ml medium) for further 4 h. Subsequently, 100 mM glutamate (from 1 M stock and PBS as solvent) was added to cells for further 6 h. Glutamate-induced cell death was quantitatively assessed by measuring lactate dehydrogenase (LDH) activity released into the culture medium by damaged cells. LDH activity was measured using PicoProbe™ LDH-Cytotoxicity Fluorometric Assay Kit (Catalog #K314-500; BioVision) according to the instruction manuals. LDH activity was estimated using an automated microplate reader (UVmax; Molecular Devices, San Francisco, CA) by measuring the fluorescent product (Ex/Em=535/587 nm).
Briefly, cells were pretreated with the designated peptide (i.e., any of SEQ ID NOs: 2 to 11) for 4 h and then treated with 100 mM glutamate for 6 h. The cell death was detected by a commercial lactate dehydrogenase (LDH) Cytotoxicity Assay Kit. Results are depicted in FIG. 1.

[1] = test system: Sprague-Dawley rats, retinal ischemia/reperfusion (I/R) injury; assay: TUNEL staining of I/R-injured rat retina (20 h); format: in vivo
Description: (§1) Experimental procedures were approved by the Mackay Memorial Hospital Review Board (Taiwan, R.O.C.). All surgeries were performed under aseptic conditions. Adult 10-week-old male Sprague-Dawley rats (initial body weight=312±11 g) were anesthetized by an intraperitoneal injection of xylazine (10 mg/kg). Peptide was dissolved in 0.85% normal saline to 1 mM and delivered by the subconjunctival injection of 100 μL peptide through a 31-Gneedle with a micro-syringe before the induction of I/R. Normal saline was as a vehicle control. Rat I/R was performed after peptide or vehicle injection for 4 h. Pupils were dilated with 0.5% tropicamide and 0.5% phenylephrine. Body temperature was maintained at 37° C. using a heating blanket After dilation of the pupil, the anterior chamber of the right eye was cannulated with a 27-gauge needle connected to a physiological saline reservoir. The intraocular pressure (IOP) was raised to 110 mmHg by keeping the reservoir at 150 cm above the eye, and retinal ischemia was confirmed by observing whitening of the iris and the loss of the red reflex of the retina. After 90 min of ischemia, the cannulating needle was withdrawn and the IOP was returned to normal pressure, resulting in recovery of the blood supply from the retinal artery and reperfusion injury induced. The reperfusion was evident by the return of the red reflex. Corneal analgesia was achieved using 1 or 2 drops of 0.4% oxybuprocaine hydrochloride, and Ofloxacin ophthalmic gel (0.3%) was applied topically to the eye before and after the procedure. Only the right eye was used in all experiments. A sham procedure was performed at left eye served as an intra-animal control.
After I/R for 20 h, rats (n=6 in each group) were euthanized by an overdose of pentobarbital. Enucleated eyeballs were fixed in 4% PFA for 24 h at 4° C. Fixed retinal tissues were embedded in paraffin. To identify apoptosis of retinal cells, 5 μm sections thick cut through the optic disc, de-paraffinized, rehydrated, incubatedwith 20 μg/mL proteinase K for 10 min, and immunofluorescence staining of apoptotic cells was performed using a terminal deoxynucleotidyl transferase(TdT)-mediated dUTP nick-end labeling (TUNEL)-based kit (Roche Molecular Biochemicals, Indianapolis, IN) according to the manufacturer's instructions. Nuclei were located by counterstaining with Hoechst 33258 for 7 min Sections were observed under an epifluorescence microscope (Zeiss Axioplan 2 imaging; Zeiss, Oberkochen, Germany) equipped with a charge-coupled device (CCD) camera (Zeiss AxioCam HRm, Zeiss) (×400, 6 fields/sample), and quantification was performed using Axiovert software (Zeiss AxioVision Release 4.8.2, Zeiss). Three sections per eye were averaged and the mean of six eyes was recorded as the representative value for each group.
In this example, the neuroprotective effect of the 6-mer variant peptides on neural retina cells and retinal capillary system was investigated using a rat model of I/R injury described in the “Material and Methods” section. Briefly, 6-mer variant peptide (1 mM, 120 μl) was injected into the subconjunctival space of Sprague-Dawley rats for 4 h before the induction of I/R. Then, I/R injury was induced in rat retinas by increasing the intraocular pressure (IOP) in the eye to 110 mmHg for 90 min, followed by 20 h of reperfusion. Subsequently, the level of retinal cell apoptosis was evaluated using TUNEL staining. In addition, the retinal morphology was analyzed with H&E staining 14 days after the I/R injury. Results are summarized in FIGS. 6 to 10, and Tables 6 to 9.

[2] = test system: Sprague-Dawley rats, retinal ischemia/reperfusion (I/R) injury; assay: Histological (H&E) evaluation of I/R-induced retinal injury (14 days); format: in vivo; details: rat, 14 days after I/R injury
Description: as §1
Rats (n=6 in each group) were euthanized using an overdose of pentobarbital (intravenously 100 mg/kg of bodyweight) at 14 days after the I/R injury, the eyeballs were marked at the 12 o'clock position of the cornea with silk suture, and then enucleated and fixed in 4% paraformaldehyde(PFA) at 4° C. for 24 h. After fixation, the anterior segment was removed, and the posterior eyeball containing the optic disc was dehydrated in a graded ethanol series and embedded in paraffin. […] To quantify the degree of I/R damage in the retina, we measured the overall central retinal thicknesses (OT, between the GCL to ONL), the inner nuclear layer (INL), and the outer nuclear layer (ONL). The number of cells in the ganglion cell layer (GCL) was calculated using the linear cell density (cells per 200 μm). Three sections per eye were averaged and the mean of six eyes was recorded as the representative value for each group.

**Q.** With “NH2-(D-Ser)-Leu-Gly-Ala-Glu-Gln-COOH (SLGAEQ; HELM PEPTIDE1{[dS].L.G.A.E.Q}$$$$V2.0; SMILES CC(C)C[C@H](NC(=O)[C@H](N)CO)C(=O)NCC(=O)N[C@@H](C)C(=O)N[C@@H](CCC(=O)O)C(=O)N[C@@H](CCC(N)=O)C(=O)O) [6-mer dS]” as the substance, how does the “glutamate-induced cell death (LDH release into the medium)” value (Neuro-2a cells; Neuro-2a cells, 20 μM peptide pretreatment 4 h, then 100 mM glutamate 6 h, solvent/glutamate control 7.6±0.8%) read?
**A.** The value was 1.5±0.5%.

**Q.** And the “protective effect on Neuro-2a cells (neuroprotective activity), in words” value (Neuro-2a cells; glutamate-induced cell death)?
**A.** The value was “exhibited protective effect on Neuro-2a cells”.

**Q.** And the “Number of TUNEL-positive cells in retina” value ([1]; subconjunctival injection 1 mM 4 h before I/R, 20 hours after I/R injury, Vehicle + I/R 27.2 ± 2.7)?
**A.** Its value is 7.8 ± 1.5 /200 μm.

**Q.** What about the “I/R-induced retinal cell apoptosis (TUNEL staining), in words” value ([1]; subconjunctival injection prior to I/R, 20 h reperfusion) of the same substance?
**A.** Its value is “only smaller numbers of green fluorescent nuclei”.

**Q.** What about the “INL Thickness” value ([2]; H&E, Control 70.7 ± 2.4, Vehicle + I/R 51.6 ± 0.8) of the same substance?
**A.** Its value is 71.3 ± 7.5 μm.

**Q.** What about the “ONL Thickness” value ([2]; H&E, Control 139.8 ± 4.2, Vehicle + I/R 125.8 ± 4.5) of the same substance?
**A.** The value was 133.4 ± 7.7 μm.

**Q.** And the “Total Thickness (From GCL to INL)” value ([2]; H&E, Control 326.2 ± 9.4, Vehicle + I/R 260.8 ± 7.1)?
**A.** The value was 308.9 ± 11.2 μm.

**Q.** And the “overall retinal thickness, in words” value ([2]; single subconjunctival injection)?
**A.** The value was “improved the overall retinal thickness to a level similar to that in the shame control group”.
